Measured values as given in PubChem BioAssay (NCI).
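Results reflect a 48-hour exposure of cells in 96-well plates to compound at five concentrations. GI50 is the concentration that inhibits growth by half. TGI marks complete inhibition of growth.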

Tests used:
Assay in all cases: NCI tumour cell line growth inhibition, 48 h
SN12C renal = tested on: SN12C renal
SNB-75 CNS = tested on: SNB-75 CNS
SK-MEL-5 melanoma = tested on: SK-MEL-5 melanoma
DU-145 prostate = tested on: DU-145 prostate
HT29 colon = tested on: HT29 colon
BT-549 breast = tested on: BT-549 breast
TK-10 renal = tested on: TK-10 renal
UACC-62 melanoma = tested on: UACC-62 melanoma
OVCAR-4 ovarian = tested on: OVCAR-4 ovarian
NCI-H23 lung = tested on: NCI-H23 lung
SF-539 CNS = tested on: SF-539 CNS
IGROV1 ovarian = tested on: IGROV1 ovarian
NCI-H460 lung = tested on: NCI-H460 lung
SK-OV-3 ovarian = tested on: SK-OV-3 ovarian
OVCAR-3 ovarian = tested on: OVCAR-3 ovarian
HCC-2998 colon = tested on: HCC-2998 colon
MOLT-4 leukemia = tested on: MOLT-4 leukemia
UACC-257 melanoma = tested on: UACC-257 melanoma
PC-3 prostate = tested on: PC-3 prostate
KM12 colon = tested on: KM12 colon
SF-268 CNS = tested on: SF-268 CNS
K-562 leukemia = tested on: K-562 leukemia
UO-31 renal = tested on: UO-31 renal
T-47D breast = tested on: T-47D breast
SK-MEL-28 melanoma = tested on: SK-MEL-28 melanoma
OVCAR-5 ovarian = tested on: OVCAR-5 ovarian
A498 renal = tested on: A498 renal
M14 melanoma = tested on: M14 melanoma
HS 578T breast = tested on: HS 578T breast
RXF 393 renal = tested on: RXF 393 renal
MDA-MB-231 breast = tested on: MDA-MB-231 breast
HCT-116 colon = tested on: HCT-116 colon
NCI-H522 lung = tested on: NCI-H522 lung
MCF7 breast = tested on: MCF7 breast
786-0 renal = tested on: 786-0 renal
HCT-15 colon = tested on: HCT-15 colon
A549 NSCLC = tested on: A549 NSCLC
U251 CNS = tested on: U251 CNS
NCI/ADR-RES ovarian = tested on: NCI/ADR-RES ovarian
COLO 205 colon = tested on: COLO 205 colon
SR leukemia = tested on: SR leukemia
NCI-H226 lung = tested on: NCI-H226 lung
MALME-3M melanoma = tested on: MALME-3M melanoma
HOP-62 NSCLC = tested on: HOP-62 NSCLC
LOX IMVI melanoma = tested on: LOX IMVI melanoma
CAKI-1 renal = tested on: CAKI-1 renal
OVCAR-8 ovarian = tested on: OVCAR-8 ovarian
CCRF-CEM leukemia = tested on: CCRF-CEM leukemia
RPMI-8226 leukemia = tested on: RPMI-8226 leukemia
SW-620 colon = tested on: SW-620 colon
ACHN renal = tested on: ACHN renal
HL-60(TB) leukemia = tested on: HL-60(TB) leukemia
SNB-19 CNS = tested on: SNB-19 CNS
EKVX NSCLC = tested on: EKVX NSCLC
SF-295 CNS = tested on: SF-295 CNS

Work on `COc1cc(C(=O)N[C@@H]2CCCN(C)C2)ccc1Nc1ncc2c(n1)N(C1CCCC1)CC(C)(C)C(=O)N2C` yielded a GI50 (SN12C renal) of 0.347 µM, a TGI (SN12C renal) of 16.6 µM and a GI50 (SNB-75 CNS) of 0.134 µM. For the same compound, the TGI (SNB-75 CNS) was 4.74 µM, the GI50 (SK-MEL-5 melanoma) was 0.123 µM and the TGI (SK-MEL-5 melanoma) was 1.56 µM. The GI50 (DU-145 prostate) was 0.0488 µM, the TGI (DU-145 prostate) was 19.6 µM and the GI50 (HT29 colon) was 0.0363 µM. It also gave a TGI (HT29 colon) of 6.46 µM, a GI50 (BT-549 breast) of 0.73 µM and a TGI (BT-549 breast) of 18 µM. The GI50 (TK-10 renal) was 4.3 µM, the TGI (TK-10 renal) was 20.9 µM and the GI50 (UACC-62 melanoma) was 0.153 µM. The TGI (UACC-62 melanoma) was 15.5 µM, the GI50 (OVCAR-4 ovarian) was 10.8 µM and the TGI (OVCAR-4 ovarian) was 23.4 µM. For the same compound, the GI50 (NCI-H23 lung) was 0.041 µM, the TGI (NCI-H23 lung) was 3.01 µM and the GI50 (SF-539 CNS) was 0.203 µM. It also gave a TGI (SF-539 CNS) of 1.69 µM, a GI50 (IGROV1 ovarian) of 0.396 µM and a TGI (IGROV1 ovarian) of 21.7 µM. The GI50 (NCI-H460 lung) was 0.04 µM, the TGI (NCI-H460 lung) was 14.8 µM and the GI50 (SK-OV-3 ovarian) was 0.0484 µM. It also gave a TGI (SK-OV-3 ovarian) of 2.42 µM, a GI50 (OVCAR-3 ovarian) of 0.0442 µM and a TGI (OVCAR-3 ovarian) of 16.1 µM. It also gave a GI50 (HCC-2998 colon) of 0.0498 µM, a TGI (HCC-2998 colon) of 14.7 µM and a GI50 (MOLT-4 leukemia) of 0.0417 µM. For the same compound, the TGI (MOLT-4 leukemia) was 3.89 µM, the GI50 (UACC-257 melanoma) was 0.285 µM and the TGI (UACC-257 melanoma) was 2.63 µM. For the same compound, the GI50 (PC-3 prostate) was 0.0646 µM, the TGI (PC-3 prostate) was 19.9 µM and the GI50 (KM12 colon) was 0.0343 µM. It also gave a TGI (KM12 colon) of 18.3 µM, a GI50 (SF-268 CNS) of 0.588 µM and a TGI (SF-268 CNS) of 20.1 µM. It also gave a GI50 (K-562 leukemia) of 0.0378 µM, a TGI (K-562 leukemia) of 3.19 µM and a GI50 (UO-31 renal) of 1.96 µM. For the same compound, the TGI (UO-31 renal) was 16.1 µM, the GI50 (T-47D breast) was 1.12 µM and the TGI (T-47D breast) was 17.8 µM. It also gave a GI50 (SK-MEL-28 melanoma) of 0.153 µM, a TGI (SK-MEL-28 melanoma) of 2.04 µM and a GI50 (OVCAR-5 ovarian) of 0.0608 µM. It also gave a TGI (OVCAR-5 ovarian) of 17.5 µM, a GI50 (A498 renal) of 0.0715 µM and a TGI (A498 renal) of 0.774 µM. It also gave a GI50 (M14 melanoma) of 0.0494 µM, a TGI (M14 melanoma) of 0.769 µM and a GI50 (HS 578T breast) of 0.188 µM. The TGI (HS 578T breast) was 19.9 µM, the GI50 (RXF 393 renal) was 0.0427 µM and the TGI (RXF 393 renal) was 8.99 µM. The GI50 (MDA-MB-231 breast) was 1.56 µM, the TGI (MDA-MB-231 breast) was 15.6 µM and the GI50 (HCT-116 colon) was 0.0509 µM. For the same compound, the TGI (HCT-116 colon) was 5.21 µM, the GI50 (NCI-H522 lung) was 0.0209 µM and the TGI (NCI-H522 lung) was 0.0575 µM. It also gave a GI50 (MCF7 breast) of 0.0278 µM, a TGI (MCF7 breast) of 11.6 µM and a GI50 (786-0 renal) of 0.308 µM. The TGI (786-0 renal) was 6.43 µM, the GI50 (HCT-15 colon) was 0.38 µM and the TGI (HCT-15 colon) was 14 µM. It also gave a GI50 (A549 NSCLC) of 0.0549 µM, a TGI (A549 NSCLC) of 5.18 µM and a GI50 (U251 CNS) of 0.0465 µM. It also gave a TGI (U251 CNS) of 5.48 µM, a GI50 (NCI/ADR-RES ovarian) of 0.344 µM and a TGI (NCI/ADR-RES ovarian) of 16.2 µM. The GI50 (COLO 205 colon) was 0.0412 µM, the TGI (COLO 205 colon) was 1.18 µM and the GI50 (SR leukemia) was 0.0369 µM. The TGI (SR leukemia) was 2.49 µM, the GI50 (NCI-H226 lung) was 0.633 µM and the TGI (NCI-H226 lung) was 21.9 µM. The GI50 (MALME-3M melanoma) was 2.03 µM, the TGI (MALME-3M melanoma) was 10.6 µM and the GI50 (HOP-62 NSCLC) was 0.0641 µM. It also gave a TGI (HOP-62 NSCLC) of 10.2 µM, a GI50 (LOX IMVI melanoma) of 0.0541 µM and a TGI (LOX IMVI melanoma) of 1.87 µM. It also gave a GI50 (CAKI-1 renal) of 0.984 µM, a TGI (CAKI-1 renal) of 19.7 µM and a GI50 (OVCAR-8 ovarian) of 0.0541 µM. It also gave a TGI (OVCAR-8 ovarian) of 16.8 µM, a GI50 (CCRF-CEM leukemia) of 0.0349 µM and a TGI (CCRF-CEM leukemia) of 16.5 µM. The GI50 (RPMI-8226 leukemia) was 1.25 µM, the TGI (RPMI-8226 leukemia) was 19.4 µM and the GI50 (SW-620 colon) was 0.0347 µM. The TGI (SW-620 colon) was 16.7 µM, the GI50 (ACHN renal) was 1.55 µM and the TGI (ACHN renal) was 19.4 µM. For the same compound, the GI50 (HL-60(TB) leukemia) was 0.0266 µM, the TGI (HL-60(TB) leukemia) was 0.0788 µM and the GI50 (SNB-19 CNS) was 0.23 µM. The TGI (SNB-19 CNS) was 20.4 µM, the GI50 (EKVX NSCLC) was 1.11 µM and the TGI (EKVX NSCLC) was 24 µM. It also gave a GI50 (SF-295 CNS) of 0.109 µM and a TGI (SF-295 CNS) of 3.56 µM.
